Results from patent publication US20200000752A1, “Method for Treating Epilepsy” (Vanderbilt University, priority 2016, published 2020).

What was measured:
[1] = Plasma protein binding; format: in vitro ADME; conditions: read-out: fraction unbound in plasma (fuplasma)
[2] = tested on: GABAA receptor α1 subunit; experiment: GABAAR α1 subunit expression by high-throughput flow cytometry in HEK 293T cells; format: cell-based, human
Experimental: The neuronal viability was determined with membrane integrity by trypan blue exclusion method^12. The mean survival was determined by counting eight randomly selected, non-overlapping fields with each containing approximately 10-20 neurons (viable+nonviable) (n=4 different cultures). GABAAR expression was determined by the high-throughput flow cytometry. HEK 293T cells were transfected with human α1, β2 and γ2 subunit cDNAs at 1:1:1 ratio for 48 hours. The α1 subunit was chosen as readout. The anti-α1 antibody was directly conjugated with Alexa 488 (data are mean±SEM, n=4). The healthy population was gated.
HEK 293T cells were transfected with wt γ2 or γ2(Q390X) subunits in combination with al and […] subunits at 1:1:1 cDNA ratio for 48 hrs. […] The cells were either unpermeabilized for surface staining (FIG. 11A, 11C) or permeabilized for total staining (FIG. 11B, 11D). al subunits were probed with mouse anti-α1 subunit antibody conjugated with Alexa 647. The relative al subunit fluorescence intensity (FI) was normalized to the wild-type without celastrol treatment.

[3] = biological target: CYP 1A2 (Homo sapiens, UniProt P05177); experiment: biochemical
Sequence of CYP 1A2 (P05177 whole entry): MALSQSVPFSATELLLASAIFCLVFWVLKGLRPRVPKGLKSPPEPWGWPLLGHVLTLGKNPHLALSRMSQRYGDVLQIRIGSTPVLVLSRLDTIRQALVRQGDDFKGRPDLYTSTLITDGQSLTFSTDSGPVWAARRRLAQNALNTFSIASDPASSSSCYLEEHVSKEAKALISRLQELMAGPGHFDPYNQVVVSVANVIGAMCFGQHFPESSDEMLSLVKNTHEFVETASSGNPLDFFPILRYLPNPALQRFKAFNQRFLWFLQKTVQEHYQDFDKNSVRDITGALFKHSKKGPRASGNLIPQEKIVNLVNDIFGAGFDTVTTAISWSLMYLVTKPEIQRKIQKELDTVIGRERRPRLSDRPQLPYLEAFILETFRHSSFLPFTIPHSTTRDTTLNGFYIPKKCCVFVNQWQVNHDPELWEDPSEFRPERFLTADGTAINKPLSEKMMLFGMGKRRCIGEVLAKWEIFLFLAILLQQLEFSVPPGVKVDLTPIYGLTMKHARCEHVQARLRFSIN

[4] = tested on: Gabrg2^+/Q390X mice; experiment: Barnes maze, Gabrg2+/Q390X mice; format: in vivo, mouse; conditions: 0.3 mg/kg IP for 2 weeks, 2-4 months old
Experimental: Flow chart in FIG. 13A depicts an overview of the Barnes maze. In training trials which are considered as learning test, time spent to locate the target hole was recorded and quantified for each day in each mouse genotype. In probe trials which are considered as memory test, an hour after the last training trial, each mouse was allotted a 300 sec session to find the target hole. […]. The total time spent at each of the 12 holes was assessed.

[5] = tested on: seizure activity; experiment: Oral gavage for 2 weeks, seizure threshold and seizure activity; format: in vivo, mice; conditions: oral gavage 3 mg/kg for 2 weeks
[6] = biological target: T1, GABAA α1β2γ2(Q390X) receptors (Homo sapiens, UniProt P14867+P18507+P47870, DEL390-467); experiment: Patch clamp current amplitude, α1β2γ2(Q390X) receptors in HEK 293T cells; format: cell-based; conditions: 1 μm, 4 hrs; GABA 1 mM
T1 construct: expressed in transfected cells; host or cells: HEK 293T
T1 sequence (P14867 28-456, stated change not applied): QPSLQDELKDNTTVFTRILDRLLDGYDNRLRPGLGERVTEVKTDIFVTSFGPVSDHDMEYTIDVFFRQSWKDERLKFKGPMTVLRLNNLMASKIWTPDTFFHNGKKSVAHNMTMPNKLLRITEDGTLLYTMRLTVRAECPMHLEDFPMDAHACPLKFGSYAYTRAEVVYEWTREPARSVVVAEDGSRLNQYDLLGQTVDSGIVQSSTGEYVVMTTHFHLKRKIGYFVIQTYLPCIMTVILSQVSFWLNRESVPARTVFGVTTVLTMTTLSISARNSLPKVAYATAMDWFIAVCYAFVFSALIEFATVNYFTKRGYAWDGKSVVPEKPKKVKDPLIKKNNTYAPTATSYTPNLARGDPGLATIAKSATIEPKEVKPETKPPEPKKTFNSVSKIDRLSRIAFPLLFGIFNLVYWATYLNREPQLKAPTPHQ
T1 sequence (P47870 26-512, stated change not applied): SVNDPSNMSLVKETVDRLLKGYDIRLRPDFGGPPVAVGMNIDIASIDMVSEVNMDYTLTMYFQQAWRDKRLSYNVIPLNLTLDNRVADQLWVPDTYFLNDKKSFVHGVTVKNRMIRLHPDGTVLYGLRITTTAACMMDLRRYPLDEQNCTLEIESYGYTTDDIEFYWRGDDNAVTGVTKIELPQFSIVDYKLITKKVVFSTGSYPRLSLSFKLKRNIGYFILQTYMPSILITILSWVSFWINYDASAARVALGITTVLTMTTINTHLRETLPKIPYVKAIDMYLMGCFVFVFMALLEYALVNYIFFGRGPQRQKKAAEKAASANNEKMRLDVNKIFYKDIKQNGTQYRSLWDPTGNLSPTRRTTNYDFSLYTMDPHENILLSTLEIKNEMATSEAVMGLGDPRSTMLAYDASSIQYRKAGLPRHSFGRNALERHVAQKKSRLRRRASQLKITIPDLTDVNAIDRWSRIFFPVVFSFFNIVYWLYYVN
T1 sequence (P18507 40-389 isoform P18507-1 limits assumed, stated change not applied): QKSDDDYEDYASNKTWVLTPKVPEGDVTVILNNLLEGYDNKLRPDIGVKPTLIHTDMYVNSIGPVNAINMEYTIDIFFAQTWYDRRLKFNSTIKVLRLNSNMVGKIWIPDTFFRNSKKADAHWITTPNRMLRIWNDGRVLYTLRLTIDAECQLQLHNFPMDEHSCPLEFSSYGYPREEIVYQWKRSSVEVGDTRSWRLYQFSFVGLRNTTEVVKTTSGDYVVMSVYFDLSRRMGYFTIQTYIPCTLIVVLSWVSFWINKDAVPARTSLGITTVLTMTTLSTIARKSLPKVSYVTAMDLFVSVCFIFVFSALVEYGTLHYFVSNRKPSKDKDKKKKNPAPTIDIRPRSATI
Experimental: (§1) HEK 293T cells were transfected with the human GABAA receptor α1, β2 subunits with the wild-type γ2s, the mutant γ2s(Q390X) or γ2s(R82Q) subunits for 48 hrs. […] A. Lifted whole cells were recorded with the application of GABA 1 mM for 6 sec. Cells was voltage clamped at −50 mV.
(§2) HEK 293T cells were transfected with the human GABAA receptor α1, β2 subunits with the wild-type γ2s, the mutant γ2s(Q390X) or γ2s(R82Q) subunits for 48 hrs.

[7] = Hepatic microsomal clearance (mouse); format: in vitro ADME; conditions: liver microsomes, pH 7.4
Experimental: (§3) Intrinsic clearance and predicted hepatic clearance: Intrinsic clearance will be determined using the substrate depletion approach. Reactions (0.3 mL) will be conducted using a Tecan EVO (San Jose, Calif.) in 96-well polypropylene cluster tubes with a temperature controlled water-jacketed aluminum plate holder held at 37° C. Incubations will be performed in triplicate in 0.1 M potassium phosphate buffer (pH 7.4), 3 mM MgCl2, 1 μM tizanidine, and 1 mg/mL liver microsomes. After incubation mixtures are equilibrated for 3 min at 37° C., reactions will be initiated with 10 mM NADPH to give a final NADPH concentration of 1 mM. At 0, 3, 7, 15, 25, and 45 min, a 25 μL aliquot will be removed from the reactions and delivered into 125 μL of acetonitrile containing an internal standard. The quench plates will then be centrifuged at 3,000×g for 10 min and an aliquot of the supernatants added to an injection plate with an equal volume of water. Samples will then be analyzed using LC/MS/MS.
(§4) Intrinsic clearance is calculated as: […]
(§5) Species-specific parameters for mouse and human liver protein content will be used. The predicted hepatic clearance will then be estimated using species-specific liver blood flow values: […]

[8] = tested on: Scn1a^+/− mice; experiment: PTZ-induced seizures in Scn1a+/- mice after 14 days treatment; format: in vivo, mouse; conditions: 0.3 mg/kg IP 14 days; PTZ 50 mg/kg IP
[9] = biological target: CYP 2D6 (Homo sapiens, UniProt P10635); experiment: biochemical
Sequence of CYP 2D6 (P10635 whole entry): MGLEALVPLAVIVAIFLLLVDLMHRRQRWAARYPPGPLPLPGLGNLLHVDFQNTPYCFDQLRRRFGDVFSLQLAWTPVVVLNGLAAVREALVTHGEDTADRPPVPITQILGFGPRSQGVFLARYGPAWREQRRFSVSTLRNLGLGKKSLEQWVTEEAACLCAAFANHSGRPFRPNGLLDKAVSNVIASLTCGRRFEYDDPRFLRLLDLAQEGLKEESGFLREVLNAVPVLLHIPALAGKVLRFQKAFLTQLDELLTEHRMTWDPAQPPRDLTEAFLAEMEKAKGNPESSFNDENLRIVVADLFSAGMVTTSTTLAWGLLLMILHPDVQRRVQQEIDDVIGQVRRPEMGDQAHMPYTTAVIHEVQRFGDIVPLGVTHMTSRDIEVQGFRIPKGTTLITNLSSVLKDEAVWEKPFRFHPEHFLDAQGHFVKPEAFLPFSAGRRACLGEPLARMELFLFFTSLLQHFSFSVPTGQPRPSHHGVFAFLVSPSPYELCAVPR

[10] = In vivo exposure (IV and PO) in rat
[11] = biological target: T2, GABAA α1β2γ2(R82Q) receptors (Homo sapiens, UniProt P14867+P18507+P47870, R82Q); experiment: Patch clamp current amplitude, α1β2γ2(R82Q) receptors in HEK 293T cells; format: cell-based; conditions: 1 μm, 4 hrs; GABA 1 mM
T2 construct: expressed in transfected cells; host or cells: HEK 293T
T2 sequence (P14867 28-456): as the sequence (P14867 28-456, stated change not applied) above
T2 sequence (P47870 25-512 limits assumed): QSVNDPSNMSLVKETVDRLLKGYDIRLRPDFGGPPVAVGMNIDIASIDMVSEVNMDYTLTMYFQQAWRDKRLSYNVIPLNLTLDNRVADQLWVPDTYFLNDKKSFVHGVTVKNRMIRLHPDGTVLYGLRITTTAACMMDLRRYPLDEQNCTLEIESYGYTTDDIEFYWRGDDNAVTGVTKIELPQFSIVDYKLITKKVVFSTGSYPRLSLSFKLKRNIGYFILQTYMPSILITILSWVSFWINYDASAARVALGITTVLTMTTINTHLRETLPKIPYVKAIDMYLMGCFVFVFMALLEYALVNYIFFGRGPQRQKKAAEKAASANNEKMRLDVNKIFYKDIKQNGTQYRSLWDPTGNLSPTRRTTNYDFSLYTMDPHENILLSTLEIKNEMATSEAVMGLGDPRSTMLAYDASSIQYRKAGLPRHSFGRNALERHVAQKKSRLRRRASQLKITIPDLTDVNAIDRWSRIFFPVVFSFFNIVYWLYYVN
T2 sequence (P18507 40-467 isoform P18507-1 R82Q limits assumed): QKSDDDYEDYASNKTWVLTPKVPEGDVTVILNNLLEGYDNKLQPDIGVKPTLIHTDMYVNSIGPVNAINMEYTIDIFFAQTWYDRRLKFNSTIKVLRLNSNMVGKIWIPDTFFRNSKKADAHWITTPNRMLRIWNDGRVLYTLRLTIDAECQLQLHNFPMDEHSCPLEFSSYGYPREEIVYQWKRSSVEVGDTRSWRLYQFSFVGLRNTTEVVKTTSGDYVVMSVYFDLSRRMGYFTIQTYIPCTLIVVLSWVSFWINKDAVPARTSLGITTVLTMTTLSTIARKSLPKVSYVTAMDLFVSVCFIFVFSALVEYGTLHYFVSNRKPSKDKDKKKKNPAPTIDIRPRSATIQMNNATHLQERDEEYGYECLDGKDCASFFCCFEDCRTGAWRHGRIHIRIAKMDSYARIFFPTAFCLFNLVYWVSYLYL
Experimental: as §1, §2

[12] = tested on: synaptic scaffold protein gephyrin; experiment: Gephyrin staining in brain sections of Gabrg2+/Q390X mice; format: in vivo, mouse; conditions: 0.3 mg/kg for 14 days
Description: Synaptosomes from mouse forebrains were isolated by subcellular fractionation^7. The samples were then fractionated by SDS-PAGE and immunoblotted by rabbit polyclonal anti-γ2 subunit antibody and synaptic scaffold proteins including gephyrin, collybistin, synaptogamin 1 and neuroligin II. The γ2 subunit protein and synaptic scaffold proteins were reduced in the Gabrg2^+/Q390X (het) mice. (FIG. 18A). […] The sections were then stained with rabbit anti-γ2 subunit (green) and mouse monoclonal anti-gephyrin (red) antibodies. The nuclei were stained with TO-PRO-3. (FIG. 18B). The raw fluorescence values of gephyrin was measured by ImageJ. […] (FIG. 18C).

[13] = Hepatic microsomal clearance (human); format: in vitro ADME; conditions: liver microsomes, pH 7.4
Experimental: as §3, §4, §5

[14] = biological target: CYP 2C8 (Homo sapiens, UniProt P10632); experiment: biochemical
Sequence of CYP 2C8 (P10632 whole entry): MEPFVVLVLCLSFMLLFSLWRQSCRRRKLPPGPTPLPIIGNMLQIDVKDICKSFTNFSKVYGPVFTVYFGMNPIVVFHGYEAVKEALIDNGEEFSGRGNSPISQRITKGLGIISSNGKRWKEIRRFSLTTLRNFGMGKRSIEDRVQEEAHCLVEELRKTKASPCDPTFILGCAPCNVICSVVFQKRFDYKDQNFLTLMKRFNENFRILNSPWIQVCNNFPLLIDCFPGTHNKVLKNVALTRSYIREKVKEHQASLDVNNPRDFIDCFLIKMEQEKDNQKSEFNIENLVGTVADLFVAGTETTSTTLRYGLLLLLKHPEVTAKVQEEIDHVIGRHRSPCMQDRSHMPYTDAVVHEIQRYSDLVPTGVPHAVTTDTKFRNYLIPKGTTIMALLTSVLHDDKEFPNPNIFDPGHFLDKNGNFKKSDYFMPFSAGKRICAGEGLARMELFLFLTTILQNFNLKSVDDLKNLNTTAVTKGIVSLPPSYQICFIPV

[15] = MDCKII bidirectional assay; format: in vitro ADME; conditions: dog
Description: (§6) MDCKII bidirectional assay was run in collaboration with Dr. Shaun Stauffer in Vanderbilt Institute of Chemical Biology (VICB) synthesis core who is a consultant on this project.

[16] = tested on: MDCKII cells; experiment: MDCKII bidirectional assay; format: in vitro ADME; conditions: MDCK II bidirectional assay
Description: as §6

## CC1=C(O)C(=O)C=C2C1=CC=C1[C@@]2(C)CC[C@@]2(C)[C@@H]3C[C@](C)(C(=O)O)CC[C@]3(C)CC[C@]12C [Celastrol, 3-Hydroxy-9β,13α-dimethyl-2-oxo-24,25,26-trinoroleana-1(10),3,5,7-tetraen-29-oic acid]
[1]
  fraction unbound: < 0.022
[2]; HEK 293T dishes with 2 and 4 μm
  cell death: Cell death was observed
[2]; HEK 293T, α1β2γ2, 0-8 μm for 4 hours
  surface α1 subunits: concentration dependently increased
[3]
  IC50: > 10 µM
[4]
  time spent at target hole in probe trial: spent more time in the target hole area
[5]
  seizure threshold and seizure activity: increasing seizure threshold and reducing seizure activity
[6]
  current amplitude: increased
[7]
  CLint scaled: 160 mL/min/kg
[8]
  seizure threshold and seizures after PTZ: increased seizure threshold and decreased seizures
[9]
  IC50: > 10 µM
[10]
  half-life: 10 h
[10]; po
  bioavailability: 7.8%
[11]
  current amplitude: increased
[12]
  gephyrin puncta: increased gephyrin puncta
[13]
  CLint scaled: 31 mL/min/kg
[14]
  IC50: 2.19 µM
[15]; MDCK, MDCKII cells, read-out: apparent membrane permeability Papp
  Papp: ≥ 1 ×10⁻⁶ cm/s
[15]; MDCK II bidirectional assay
  Papp A→B: 56.5 ×10⁻⁶ cm/s
[16]
  efflux: no significant efflux
